Laboratory results reported in patent US20240122926A1, “APELIN RECEPTOR MODULATORS FOR TREATING MUSCLE CONDITIONS” (priority 2022, published 2024).
“Also recorded” adds a separate entry of the source. Read-outs that look alike come from different tables or passages of the source.

Experiments:
[1] = Phase 1 study BGE-105-101 Part A (SAD), pharmacokinetics after IV infusion; format: in vivo, human; conditions: for Dose-normalized AUCinf / Dose-normalized Cmax: unit assumed; for AUC(0-t) / AUC(0-inf) / half-life / Cmax: human, plasma; for AUC(0-t) / AUC(0-inf) / half-life: intravenous; for Cmax: iv, IV infusion
Method: After a baseline period of 24 hours in the clinic, all subjects receive a LD, 1-hour infusion on Day 1. After a 48-hour wash-out period, in which PK and PK/PD data is collected, subjects receive a 23-hour infusion (1-hour LD followed by a 22-hour maintenance dose). See FIG. 10 for the different dose levels in each SAD cohort. See e.g., Table 3 below. Part A is double-blinded. The cohorts of Part A is conducted sequentially starting with SAD cohort 1.
On Day 1 for Part A, subjects receive LD, 1-hour infusion. On Day 3, after a 48-hour washout period, subjects then receive a 23-hour infusion (1-hour LD followed by a 22-hour MD). No earlier than 24 hours after the end of infusion, subjects is discharged from the clinic on Day 5 (End of Treatment Period [EOTP]). A treatment protocol for the SAD cohorts of Part A is outlined in FIG. 12 and is described in Table 9 below.
Relevant plasma PK parameters are derived for BGE-105 by standard noncompartmental methods and tabulated along with descriptive statistics and graphs.

[2] = tested on: 24-month-old C57BL/6 mice; test: Activity monitoring wheel test in aged mice (frailty study); format: in vivo, mouse; conditions: 275 ug/mL in drinking water; both experiments; average
Method: The animals were housed with access to voluntary running wheels that wirelessly transmit running data to a computer for analysis. Voluntary running wheel activity levels were measured daily, and body weights were measured every 2 weeks.
The study concluded on Study Day 83. Activity wheel monitoring started on Study Day 1 and ended on Study Day 83 (Phase Day 64). The data was analyzed at the end of the study. […] For the frailty portion of the study, mice were assessed using an activity monitoring wheel which was monitored passively with a computer monitoring system.
BGE-105 was administered in drinking water consumed ad libitum. The compound is mildly acidic when dissolved, resulting in a pH 4.5 solution. The deionized water was adjusted to pH 8.5 by adding 1N NaOH. […]
The activity-monitoring wheel is a running disk that monitors rotations. […] Activity was monitored passively and wirelessly with a computer monitoring system. Running wheel activity levels were monitored daily. […] Mouse activity levels were measured as the number of wheel revolutions per day for each mouse and converted into a daily count of kilometers run using the diameter of the wheel. Within each experimental group, the daily median value for activity was calculated. […] The daily differences between the distances run in each group were calculated and tested for an increasing trend using Kendall's rank correlation tau.

serum proteome = test: Phase 1b bed rest study, serum proteomic profiling; format: in vivo, human
Method: Proteomic profiling and analysis were performed on serum collected from the phase 1B clinical trial subjects (treated vs placebo) as described above. Eleven (11) treated and 10 placebo subject's serum levels were profiled for their proteomics collected at day −1 (baseline), day 5 and day 11. A linear regression model was implemented with an interaction term between treatment group and day to identify proteins whose differential abundance between the treatment groups influenced the average rate of change per day of a given protein. This model was fit separately for all proteins measured, and the resulting coefficient (on the interaction term) for each protein was used to rank order all proteins from most positive to most negative coefficient.
For each human aging cohort phenotype (various physical function phenotypes and mortality), two protein sets consisting respectively (to preserve directionality) of the proteins positively and negatively associated (p<0.05) with that phenotype. Significant phenotypes in the right-hand graph of FIG. 48 and FIG. 49 with their GSEA plots and p-values (significant phenotypes were not shown when their protein sets overlapped substantially with those of already shown phenotypes).

human APLNR = molecular target: T1, human APLNR (Homo sapiens, UniProt P35414); test: cell-based; conditions: CHO, read-out: maximum effect (Emax)
T1 sequence (P35414 1-380): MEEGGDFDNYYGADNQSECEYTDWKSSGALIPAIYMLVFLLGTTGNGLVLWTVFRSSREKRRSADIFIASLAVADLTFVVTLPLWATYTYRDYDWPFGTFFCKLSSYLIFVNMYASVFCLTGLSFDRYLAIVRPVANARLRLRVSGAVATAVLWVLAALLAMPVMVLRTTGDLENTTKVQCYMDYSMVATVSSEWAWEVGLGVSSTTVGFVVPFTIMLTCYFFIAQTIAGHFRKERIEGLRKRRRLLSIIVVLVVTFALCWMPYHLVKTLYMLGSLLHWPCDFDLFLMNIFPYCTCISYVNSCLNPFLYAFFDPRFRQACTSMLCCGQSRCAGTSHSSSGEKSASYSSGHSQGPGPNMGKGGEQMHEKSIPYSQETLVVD
Method: APLNR activation was determined by β-arrestin recruitment as measured by the ProLink […] complementation technology (93-0001, DiscoveRx). In brief, CHO cells stably expressing APLNR were seeded and incubated overnight at 37° C. The compounds were tested in duplicate and diluted to obtain a 10-point curve with 3-fold serial dilutions (<1% DMSO). The compounds and cells were incubated for 3 hours at 37° C. After the incubation period the detection reagents were added and the plate chemiluminescent signal was measured after 30 min at RT.

[3] = SAD1 (60 mg/360 mg), Day 1, mean
[4] = SAD2 (120 mg/720 mg), Day 1, mean
[5] = SAD3 (240 mg/1440 mg), Day 1, mean

COc1cccc(OC)c1-n1c(NS(=O)(=O)[C@@H](C)[C@H](C)c2ncc(C)cn2)nnc1-c1cncc(C)c1 [BGE-105, (2S,3R)—N-(4-(2,6-dimethoxyphenyl)-5-(5-methyl-3-pyridinyl)-4H-1,2,4-triazol-3-yl)-3-(5-methyl-2-pyrimidinyl)-2-butanesulfonamide]
dose proportionality / linearity of PK ([1]; 3 SAD cohorts, dose vs Cmax and AUC): dose proportionality; also recorded: linear | Dose-normalized AUCinf [1, 3]: 0.66 µg·h/mL/mg | Dose-normalized Cmax [1, 3]: 0.12 µg/mL/mg | Dose-normalized AUCinf [1, 4]: 0.49 µg·h/mL/mg | Dose-normalized Cmax [1, 4]: 0.11 µg/mL/mg | Dose-normalized AUCinf [1, 5]: 0.5 µg·h/mL/mg | Dose-normalized Cmax [1, 5]: 0.11 µg/mL/mg | AUC(0-t) ([1]; 60 mg, SAD1 (60 mg/360 mg), Day 1, mean, read-out: AUC0-24): 34.7 µg·h/mL | AUC(0-t) ([1]; 60 mg, SAD1 (60 mg/360 mg), Day 1, mean, read-out: AUClast): 37.4 µg·h/mL | AUC(0-t) ([1]; 120 mg, SAD2 (120 mg/720 mg), Day 1, mean, read-out: AUC0-24): 53.7 µg·h/mL | AUC(0-t) ([1]; 120 mg, SAD2 (120 mg/720 mg), Day 1, mean, read-out: AUClast): 56.8 µg·h/mL | AUC(0-t) ([1]; 240 mg, SAD3 (240 mg/1440 mg), Day 1, mean, read-out: AUC0-24): 107 µg·h/mL | AUC(0-t) ([1]; 240 mg, SAD3 (240 mg/1440 mg), Day 1, mean, read-out: AUClast): 114 µg·h/mL | AUC(0-t) ([1]; SAD1 (60 mg/360 mg), Day 3, mean, read-out: AUC0-24): 173 µg·h/mL | AUC(0-t) ([1]; SAD1 (60 mg/360 mg), Day 3, mean, read-out: AUClast): 306 µg·h/mL | AUC(0-t) ([1]; SAD2 (120 mg/720 mg), Day 3, mean, read-out: AUC0-24): 267 µg·h/mL | AUC(0-t) ([1]; SAD2 (120 mg/720 mg), Day 3, mean, read-out: AUClast): 450 µg·h/mL | AUC(0-t) ([1]; SAD3 (240 mg/1440 mg), Day 3, mean, read-out: AUC0-24): 612 µg·h/mL | AUC(0-t) ([1]; SAD3 (240 mg/1440 mg), Day 3, mean, read-out: AUClast): 1060 µg·h/mL | AUC(0-t) ([1]; highest dose (240 mg/1440 mg), read-out: AUClast): 1060 µg·h/mL | AUC(0-inf) [1, 3]: 39.6 µg·h/mL | half-life [1, 3]: 9.1 h | AUC(0-inf) [1, 4]: 58.8 µg·h/mL | half-life [1, 4]: 8.6 h | AUC(0-inf) [1, 5]: 119 µg·h/mL | half-life [1, 5]: 8.9 h | Cmax ([1]; 60 mg, SAD1 (60 mg/360 mg), Day 1, mean): 7430 ng/mL | Cmax ([1]; 120 mg, SAD2 (120 mg/720 mg), Day 1, mean): 13700 ng/mL | Cmax ([1]; 240 mg, SAD3 (240 mg/1440 mg), Day 1, mean): 26700 ng/mL | Cmax ([1]; SAD1 (60 mg/360 mg), Day 3, mean): 10100 ng/mL | Cmax ([1]; SAD2 (120 mg/720 mg), Day 3, mean): 14800 ng/mL | Cmax ([1]; SAD3 (240 mg/1440 mg), Day 3, mean): 35600 ng/mL | distance run more than vehicle-treated mice at end of experimental period [2]: at least 1 km/day | number of proteins associated with grip strength (out of 379) changed by treatment (serum proteome): 58 | number of proteins associated with walk speed (out of 526) changed by treatment (serum proteome): 35 | number of proteins associated with frailty (out of 992) changed by treatment (serum proteome; p<0.05): 69 | Emax (human APLNR): 114%
